The text below walks through data of patent publication US20090203797A1, “Antimycotic Patch” (priority 2007, published 2009).

Counter-ions that a name gives are not always drawn.

For series [1] the following is noted: from the interview form provided with 125 mg Lamisil Tablets; cited from earlier work.
Series [2] can be described thus: octanol/water partition coefficient logKo/w. It counts as physicochemical. Conditions: 32° C., HPLC of each layer. How it is done: In the present invention, logKo/w is determined in the following manner. First, a drug is dissolved in a suitable amount of octanol (or water) at 32° C. followed by the further addition of an equal amount of water (or octanol) and mixing well. After the mixture divides into two layers, the concentration of drug in each layer is measured by HPLC and logKo/w is determined using the equation below. LogKo/w=log(drug concentration in octanol phase/drug concentration in aqueous phase)

Consider `CN(C/C=C/C#CC(C)(C)C)Cc1cccc2ccccc12` [terbinafine hydrochloride], for which the logKo/w value in series [1] is listed as 0.87.
A word on the logP: it is a log measure of how a compound divides between an organic and an aqueous phase. A low value points to lower lipophilicity. In series [2], `CN(C/C=C/C#CC(C)(C)C)Cc1cccc2ccccc12` [terbinafine-base] showed a logP of 5.8.
